The record followed here is patent US10526327B2, “Histone demethylase inhibitors” (CELGENE QUANTICEL RESEARCH, INC., priority 2013, dated 2020).

A value given as a limit tells only on which side of the number the result lay.

In assay [1] the target is T1, Jarid1B (Homo sapiens, UniProt Q9UGL1).
T1 construct: purchased BPS Bioscience or custom made by MolecularThroughput 50121
T1 sequence (Q9UGL1 2-751): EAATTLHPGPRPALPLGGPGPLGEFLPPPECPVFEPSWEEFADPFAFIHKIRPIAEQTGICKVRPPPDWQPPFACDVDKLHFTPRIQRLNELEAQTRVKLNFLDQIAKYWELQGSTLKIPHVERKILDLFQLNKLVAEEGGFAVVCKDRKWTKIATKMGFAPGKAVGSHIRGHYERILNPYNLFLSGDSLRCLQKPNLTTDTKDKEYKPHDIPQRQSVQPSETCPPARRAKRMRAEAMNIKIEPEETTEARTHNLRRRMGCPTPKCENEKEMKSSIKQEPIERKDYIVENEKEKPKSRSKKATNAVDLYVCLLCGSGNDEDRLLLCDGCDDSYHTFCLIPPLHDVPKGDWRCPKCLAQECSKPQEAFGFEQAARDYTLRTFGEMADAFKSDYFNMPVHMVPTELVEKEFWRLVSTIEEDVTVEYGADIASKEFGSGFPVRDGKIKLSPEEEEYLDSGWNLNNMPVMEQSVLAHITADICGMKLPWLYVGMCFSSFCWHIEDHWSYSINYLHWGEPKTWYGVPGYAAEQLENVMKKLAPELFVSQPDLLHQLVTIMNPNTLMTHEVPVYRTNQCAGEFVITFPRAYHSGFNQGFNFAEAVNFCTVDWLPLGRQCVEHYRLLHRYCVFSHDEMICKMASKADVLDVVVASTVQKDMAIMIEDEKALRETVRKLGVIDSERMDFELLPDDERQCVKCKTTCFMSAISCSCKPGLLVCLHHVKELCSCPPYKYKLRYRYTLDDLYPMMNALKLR
In words: Jarid1B in vitro enzyme inhibition assay (TR-FRET). The format is biochemical. From the text:
(§1) This assay determines the ability of a test compound to inhibit Jarid1A, Jarid1B, and JMJD2C demethylase activity. Baculovirus expressed Jarid1A (GenBank Accession #NM_001042603, AA1-1090) was purchased from BPS Bioscience (Cat#50110). Baculovirus expressed Jarid1B (GenBank Accession #NM_006618, AA 2-751) was purchased from BPS Bioscience (Cat #50121) or custom made by MolecularThroughput. Baculovirus expressed JMJD2C (GenBank Accession #BC143571, AA 2-372) was purchased from BPS Bioscience (Cat#50105).
The ability of test compounds to inhibit the activity of Jarid1B was determined in 384-well plate format under the following reaction conditions: 0.8 nM Jarid1B, 300 nM H3K4me3-biotin labeled peptide (Anaspec cat #64357), 2 μM alpha-ketoglutaric acid in assay buffer of 50 mM HEPES, pH7.3, 0.005% Brij35, 0.5 mM TCEP, 0.2 mg/ml BSA, 50 μM sodium L-ascorbate, and 2 μM ammonium iron(II) sulfate. Reaction product was determined quantitatively by TR-FRET after the addition of detection reagent Phycolink Streptavidin-allophycocyanin (Prozyme) and Europium-anti-mono-or di-methylated histone H3 lysine 4 (H3K4me1-2) antibody (PerkinElmer) in the presence of 5 mM EDTA in LANCE detection buffer (PerkinElmer) at a final concentration of 25 nM and 1 nM, respectively.
(§2) The assay reaction was initiated by the following: 2 μl of the mixture of 900 nM H3K4me3-biotin labeled peptide and 6 μM alpha-ketoglutaric acid with 2 μl of 11-point serial diluted inhibitor in 3% DMSO was added to each well of the plate, followed by the addition of 2 μl of 2.4 nM Jarid1B to initiate the reaction. The reaction mixture was incubated at room temperature for 30 minutes, and terminated by the addition of 6 μl of 5 mM EDTA in LANCE detection buffer containing 50 nM Phycolink Streptavidin-allophycocyanin and 2 nM Europium-anti-H3K4me1-2 antibody. Plates were read by EnVisionMultilabel Reader in TR-FRET mode (excitation at 320 nm, emission at 615 nm and 665 nm) after 1 hour incubation at room temperature. A ratio was calculated (665/615) for each well and fitted to determine inhibition constant (IC50).
A general note: Time-resolved FRET reads energy transfer from a long-lived donor to a nearby acceptor.

The target in assay [2] is T2, JMJD2C (Homo sapiens, UniProt Q9H3R0).
T2 construct: purchased BPS Bioscience 50105
T2 sequence (Q9H3R0 2-372): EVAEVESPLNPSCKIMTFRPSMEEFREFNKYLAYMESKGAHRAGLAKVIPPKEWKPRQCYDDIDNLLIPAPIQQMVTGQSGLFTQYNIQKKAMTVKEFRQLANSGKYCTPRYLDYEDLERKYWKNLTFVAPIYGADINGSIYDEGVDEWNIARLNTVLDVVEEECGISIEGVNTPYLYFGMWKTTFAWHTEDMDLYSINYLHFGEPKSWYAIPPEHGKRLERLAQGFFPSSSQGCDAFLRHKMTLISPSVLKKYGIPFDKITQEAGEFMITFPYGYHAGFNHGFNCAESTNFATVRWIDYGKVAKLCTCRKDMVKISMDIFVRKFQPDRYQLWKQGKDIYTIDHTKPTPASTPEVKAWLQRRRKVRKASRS
Description: JMJD2C in vitro enzyme inhibition assay (TR-FRET). The format is biochemical.
Source text: as §1
The ability of test compounds to inhibit the activity of JMJD2C was determined in 384-well plate format under the following reaction conditions: 0.3 nM JMJD2C, 300 nM H3K9me3-biotin labeled peptide (Anaspec cat #64360), 2 μM alpha-ketoglutaric acid in assay buffer of 50 mM HEPES, pH7.3, 0.005% Brij35, 0.5 mM TCEP, 0.2 mg/ml BSA, 50 μM sodium L-ascorbate, and 2 μM ammonium iron(II) sulfate. Reaction product was determined quantitatively by TR-FRET after the addition of detection reagent Phycolink Streptavidin-allophycocyanin (Prozyme) and Europium-anti-di-methylated histone H3 lysine 9 (H3K9me2) antibody (PerkinElmer) in the presence of 5 mM EDTA in LANCE detection buffer (PerkinElmer) at a final concentration of 50 nM and 1 nM, respectively.
as §2, with “nM H3K9me3-biotin” for “nM H3K4me3-biotin”, “DMSO were” for “DMSO was”, “of 0.9” for “of 2.4”, “nM JMJD2C” for “nM Jarid1B”, “containing 100” for “containing 50”, “nM Europium-anti-H3K9me2” for “nM Europium-anti-H3K4me1-2”

One may read the IC50 as the concentration at which inhibition is half-maximal. A higher IC50 goes with weaker potency in that assay. Consider `CN(C)CCOc1nc(O)c2ccnc(-c3cn(C)cn3)c2n1` [Example 76, 2-[2-(dimethylamino)ethoxy]-8-(1-methylimidazol-4-yl)pyrido[3,4-d]pyrimidin-4-ol], for which the concentration for half-maximal inhibition (IC50) in assay [1] and in assay [2] was 100 to 1000 nM each time.
Turning to `Cn1cnc(-c2nccc3c(O)nc(OCC(F)F)nc23)c1` [Example 77, 2-(2,2-difluoroethoxy)-8-(1-methylimidazol-4-yl)pyrido[3,4-d]pyrimidin-4-ol], the results for the IC50 in assay [1] and in assay [2] were at most 100 nM and 100 to 1000 nM, respectively.
The like results for `Cn1cnc(-c2nccc3c(O)nc(OCCC4CC4)nc23)c1` [Example 78, 2-(2-cyclopropylethoxy)-8-(1-methylimidazol-4-yl)pyrido[3,4-d]pyrimidin-4-ol] were, in that order, at most 100 nM and 100 to 1000 nM.
For `Cn1cnc(-c2nccc3c(O)nc(Oc4cnn(Cc5ccccc5)c4)nc23)c1` [Example 79, 2-(1-benzylpyrazol-4-yl)oxy-8-(1-methylimidazol-4-yl)pyrido[3,4-d]pyrimidin-4-ol], in that order: at most 100 nM and 100 to 1000 nM.
In the case of `CC(C)CCn1cc(Oc2nc(O)c3ccnc(-c4cn(C)cn4)c3n2)cn1` [Example 80, 2-[1-(3-methylbutyl)pyrazol-4-yl]oxy-8-(1-methylimidazol-4-yl)pyrido[3,4-d]pyrimidin-4-ol], the IC50 in assay [1] is at most 100 nM; in assay [2] it was 100 to 1000 nM.
For `Cn1cnc(-c2nccc3c(O)nc(Oc4ccc(F)c(F)c4)nc23)c1` [Example 81, 2-(3,4-difluorophenoxy)-8-(1-methylimidazol-4-yl)pyrido[3,4-d]pyrimidin-4-ol], in that order: at most 100 nM and 100 to 1000 nM.
For the compound `COCCOc1ccc(Oc2nc(O)c3ccnc(-c4cn(C)cn4)c3n2)cc1` [Example 82, 2-[4-(2-methoxyethoxy)phenoxy]-8-(1-methylimidazol-4-yl)pyrido[3,4-d]pyrimidin-4-ol], the IC50 in assay [1] was at most 100 nM; in assay [2] it was 100 to 1000 nM.
The like results for `Cn1cnc(-c2nccc3c(O)nc(Oc4ccc5cnn(C)c5c4)nc23)c1` [Example 83, 8-(1-methylimidazol-4-yl)-2-(1-methylindazol-6-yl)oxypyrido[3,4-d]pyrimidin-4-ol] were, in that order, at most 100 nM and 100 to 1000 nM.
The like results for `CCn1ncc2ccc(Oc3nc(O)c4ccnc(-c5cn(C)cn5)c4n3)cc21` [Example 84, 2-(1-ethylindazol-6-yl)oxy-8-(1-methylimidazol-4-yl)pyrido[3,4-d]pyrimidin-4-ol] were, in that order, at most 100 nM and 100 to 1000 nM.
For `Cc1nn(C)c2cc(Oc3nc(O)c4ccnc(-c5cn(C)cn5)c4n3)ccc12` [Example 85, 2-(1,3-dimethylindazol-6-yl)oxy-8-(1-methylimidazol-4-yl)pyrido[3,4-d]pyrimidin-4-ol], in that order: at most 100 nM and 100 to 1000 nM.
Consider `Oc1nc(Oc2cnn(Cc3ccc(F)cc3)c2)nc2cnccc12` [Example 86, 2-[1-(4-fluorobenzyl)pyrazol-4-yl]oxypyrido[3,4-d]pyrimidin-4-ol], for which the IC50 in assay [1] and in assay [2] was at most 100 nM each time.
For `Oc1nc(Oc2cnn(Cc3ccccc3F)c2)nc2cnccc12` [Example 87, 2-[1-(2-fluorobenzyl)pyrazol-4-yl]oxypyrido[3,4-d]pyrimidin-4-ol], the half-inhibitory concentration (IC50) in assay [1] and in assay [2] was at most 100 nM in each case.
As for `CC(C)(C)OC(=O)N1CCC(n2cc(Oc3nc(O)c4ccncc4n3)cn2)CC1` [Example 88, tert-butyl 4-[4-(4-hydroxypyrido[3,4-d]pyrimidin-2-yl)oxypyrazol-1-yl]piperidine-1-carboxylate], the IC50 was at most 100 nM in assay [1] and 100 to 1000 nM in assay [2].
For `Oc1nc(Oc2cnn(C3CCNCC3)c2)nc2cnccc12` [Example 89, 2-(1-piperidin-4-ylpyrazol-4-yl)oxypyrido[3,4-d]pyrimidin-4-ol], in that order: at most 100 nM and at most 100 nM.
On to `CC(=O)N1CCC(n2cc(Oc3nc(O)c4ccncc4n3)cn2)CC1` [Example 90, 1-[4-[4-(4-hydroxypyrido[3,4-d]pyrimidin-2-yl)oxypyrazol-1-yl]piperidin-1-yl]ethanone], for which the half-inhibitory concentration (IC50) in assay [1] and in assay [2] was at most 100 nM throughout.
In the case of `C=CC(=O)N1CCC(n2cc(Oc3nc(O)c4ccncc4n3)cn2)CC1` [Example 91, 1-[4-[4-(4-hydroxypyrido[3,4-d]pyrimidin-2-yl)oxypyrazol-1-yl]piperidin-1-yl]prop-2-en-1-one], the figures for the IC50 in assay [1] and in assay [2] were at most 100 nM and 100 to 1000 nM, respectively.
The like results for `O=C(C1CC1)N1CCC(n2cc(Oc3nc(O)c4ccncc4n3)cn2)CC1` [Example 92, cyclopropyl-[4-[4-(4-hydroxypyrido[3,4-d]pyrimidin-2-yl)oxypyrazol-1-yl]piperidin-1-yl]methanone] were, in that order, at most 100 nM and at most 100 nM.
`O=C(c1ccc(F)cc1)N1CCC(n2cc(Oc3nc(O)c4ccncc4n3)cn2)CC1` [Example 93, (4-fluorophenyl)-[4-[4-(4-hydroxypyrido[3,4-d]pyrimidin-2-yl)oxypyrazol-1-yl]piperidin-1-yl]methanone]: the 50% inhibitory concentration (IC50) in assay [1] and in assay [2] was at most 100 nM in each case.
Consider `O=S(=O)(C1CC1)N1CCC(n2cc(Oc3nc(O)c4ccncc4n3)cn2)CC1` [Example 94, 2-[1-(1-cyclopropylsulfonylpiperidin-4-yl)pyrazol-4-yl]oxypyrido[3,4-d]pyrimidin-4-ol], for which the half-inhibitory concentration (IC50) in assay [1] and in assay [2] was at most 100 nM throughout.
